Measured values from US11033559B2, “Leukocyte infiltration promoting agent and antitumor immunostimulatory agent” (OSAKA UNIVERSITY, priority 2015, dated 2021).

Legend:
Type in all cases: in vivo
LLC tumor in mice [1] = assay: Changes in localization of immune cells in tumor (CD31, CD4, CD8 immunostaining); conditions: tumor sections of Reference Example 1, LLC-bearing mice, 3 mg/kg i.p. for five days
Procedure: LPA was administered to tumor-bearing mice generated by subcutaneous inoculation of a mouse cancer cell line, and changes in the localization of immune cells in the tumor were examined.
The tumor sections prepared in Reference Example 1 were immunostained with an anti-CD4 antibody and an anti-CD8 antibody. As a primary antibody, Purified Hamster Anti-PECAM-1 Antibody (Millipore), which is an anti-mouse CD31 antibody, PE-labeled Anti-mouse CD4 Antibody (Pharmingen) or FITC-labeled Anti-mouse CD8 Antibody (Pharmingen) was used. As a secondary antibody, Alexa Fluor 647-conjugated Anti-Armenian Hamster IgG was used. The immunostaining was performed in the same procedure as in Reference Example 1. The immunostained sections were observed and photographed under a confocal laser microscope (Leica).

LLC cells = assay: Tumor growth inhibition, subcutaneous tumor formed from LLC cells; conditions: LLC-bearing mice; LPA 3 mg/kg i.p. once daily for seven days; 5-FU 100 mg/kg i.p. once weekly, 2 times
Procedure: LLC cells (1×10^6 cells in 100 μL PBS per animal) were subcutaneously injected into C57BL/6 NCrSlc mice aged 8 weeks (females) in the same manner as in Reference Example 1. An LPA solution for administration was prepared in the same manner as in Reference Example 1. 5-FU (Kyowa Hakko Kirin Co., Ltd.) was used as an anticancer drug. 5-FU was prepared as a solution in physiological saline (Otsuka Pharmaceutical Co., Ltd.). On day 7 post-inoculation, LLC-bearing mice that had developed a tumor with a volume of 30 to 50 mm^3 were selected and subjected to the experiment. The mice were assigned to three groups: a control group, a 5-FU group and an LPA group (n=3 per group). After grouping, LPA (3 mg/kg/100 μL), 5-FU (100 mg/kg/100 μL) or PBS (100 μL) was intraperitoneally administered to the mice. The administration of LPA or PBS was performed once daily for consecutive seven days. The administration of 5-FU was performed once weekly, 2 times in total (day 7 and day 14 post-inoculation). Tumor size was measured over time after the start of the administration. Tumor volume was calculated by the following formula: length×width×height×0.5.

LLC tumor in mice [2] = assay: Drug (doxorubicin) delivery from tumor blood vessels to tumor tissues after LPA administration; conditions: LLC-bearing mice, LPA 3 mg/kg i.p., doxorubicin 1.5 mg/kg via tail vein 24 hours later, tumors harvested at 20 minutes
Source text: As is commonly known, low blood flow and vascular hyperpermeability are the hallmarks of tumors. These cause an increase in tumor interstitial fluid pressure, leading to no difference in osmotic pressure between the tumor parenchyma and the blood vessels. This condition is a great obstacle to substance penetration from the vascular lumen to tumor tissues. Based on the above results showing that LPA administration induces a dense network formation of tumor blood vessels with a smooth luminal surface, it was hypothesized that LPA administration would improve drug penetration from tumor blood vessels. To examine drug penetration into tumors after LPA administration, the following experiments were conducted.
LLC cells were subcutaneously inoculated into C57BL/6 NCrSlc mice aged 8 weeks (females, SLC, Inc.) in the same manner as in Reference Example 1. An LPA solution for administration was prepared in the same manner as in Reference Example 1. On day 11 post-inoculation, LLC-bearing mice that had developed a tumor with a volume of 100 to 120 mm^3 were selected. The mice were divided into two groups: a control group and an LPA group (n=3 per group). After grouping, LPA (3 mg/kg/100 μL) or PBS (100 μL) was intraperitoneally administered to the mice. […] Doxorubicin is a fluorescent anticancer drug that can be detected at an excitation wavelength of 480 nm and a measurement wavelength of 575 nm. […]

lysophosphatidic acid [LPA]
continuity of tumor blood vessels (anti-CD31 staining) (LLC tumor in mice [1]): blood vessels were continuous | localization of CD4-positive cells in the tumor (LLC tumor in mice [1]): CD4-positive cells were present even in the central part of the tumor | localization of CD8-positive cells in the tumor (LLC tumor in mice [1]): CD8-positive cells were present in the whole tumor region | inhibition of tumor growth (tumor volume) versus control group (LLC cells): albeit to a slightly lesser extent, the LPA group also showed inhibition of tumor growth | penetration of doxorubicin into tumors (LLC tumor in mice [2]): delivery of doxorubicin from tumor blood vessels to the deep part of the tumor was observed
